Results as given in ChEMBL document CHEMBL1201862, “PubChem BioAssay data set” (2004).
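Five compound concentrations were applied to cells in 96-well plates for 48 hours; endpoints were derived by simple linear interpolation of the resulting dose-response curve. GI50 marks 50% less growth.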 Calls of active or inactive are those of the source. Cut-off read from the data, not from the text of the source: active = GI50 up to about 1.1 µM and inactive = higher.

Columns and labels:
Experiment in all cases: inhibition of tumour cell growth, NCI panel, 48 h
A498 = system: A498
A549 = system: A549
ACHN = system: ACHN
DU-145 = system: DU-145
HCT-116 = system: HCT-116
HOP-92 = system: HOP-92
HT-29 = system: HT-29
M14 = system: M14
MDA-MB-435 = system: MDA-MB-435
MDA-N = system: MDA-N
NCI-H226 = system: NCI-H226
NCI-H522 = system: NCI-H522
OVCAR-5 = system: OVCAR-5
PC-3 = system: PC-3
SF-295 = system: SF-295
SF-539 = system: SF-539
SK-MEL-2 = system: SK-MEL-2
SK-OV-3 = system: SK-OV-3
TK-10 = system: TK-10
UO-31 = system: UO-31

Measured: GI50

CCCC(c1cc(C(C)(C)C)c(O)cc1C)c1cc(C(C)(C)C)c(O)cc1C
inactive: A498 2.05 µM | A549 2.99 µM | ACHN 2.67 µM | DU-145 4.05 µM | HCT-116 1.91 µM | HOP-92 8.41 µM | HT-29 6.65 µM | M14 2.09 µM | MDA-MB-435 2.59 µM | MDA-N 1.87 µM | NCI-H226 2.3 µM | NCI-H522 2.33 µM | OVCAR-5 2.13 µM | PC-3 3.29 µM | SF-295 2.4 µM | SF-539 2.39 µM | SK-MEL-2 2.6 µM | SK-OV-3 3.65 µM | TK-10 3.2 µM | UO-31 3.33 µM

O=C(Nc1ccc(Cl)c(Cl)c1)C(=O)C(C1OC(=O)c2ccccc21)[N+](=O)[O-] (stereo not given)
inactive: A498 > 100 µM | A549 > 100 µM | ACHN > 100 µM | DU-145 > 100 µM | HCT-116 > 100 µM | HOP-92 81.7 µM | HT-29 > 100 µM | M14 > 100 µM | MDA-MB-435 > 100 µM | MDA-N > 100 µM | NCI-H226 > 100 µM | NCI-H522 > 100 µM | OVCAR-5 > 100 µM | PC-3 > 100 µM | SF-295 > 100 µM | SF-539 > 100 µM | SK-MEL-2 > 100 µM | SK-OV-3 > 100 µM | TK-10 > 100 µM | UO-31 > 100 µM

O=C1C(Cl)=C(N2CCN(c3ccccn3)CC2)C(=O)c2ncccc21
inactive: A498 11.3 µM | A549 6.56 µM | ACHN 2.33 µM | DU-145 11.8 µM | HCT-116 1.74 µM | HOP-92 1.88 µM | HT-29 3.13 µM | M14 1.6 µM | MDA-MB-435 1.69 µM | MDA-N 1.76 µM | NCI-H226 5.68 µM | NCI-H522 1.67 µM | OVCAR-5 7.87 µM | PC-3 2.8 µM | SF-295 5.69 µM | SF-539 2.05 µM | SK-MEL-2 1.87 µM | SK-OV-3 7 µM | TK-10 3.97 µM | UO-31 1.77 µM

C[C@H](CCc1nc(C#N)c(N)o1)[C@H]1CC[C@H]2[C@@H]3[C@@H](O)CC4C[C@@H](O)CC[C@]4(C)[C@H]3C[C@@H](O)[C@]12C (stereo not given in full)
inactive: A498 39.1 µM | A549 29.4 µM | ACHN 26.4 µM | DU-145 28.1 µM | HCT-116 21.4 µM | HOP-92 22.2 µM | HT-29 20.2 µM | M14 29 µM | MDA-MB-435 22 µM | MDA-N 25.9 µM | NCI-H226 21.2 µM | NCI-H522 4.03 µM | OVCAR-5 23.3 µM | PC-3 9.95 µM | SF-295 22.8 µM | SF-539 17.9 µM | SK-MEL-2 19.9 µM | SK-OV-3 37.5 µM | TK-10 24.2 µM | UO-31 20.6 µM

CC1(C)C2C=C(CCN3CCOCC3)CC1C2 (stereo not given)
inactive: A498 > 100 µM | A549 > 100 µM | ACHN > 100 µM | DU-145 > 100 µM | HCT-116 > 100 µM | HOP-92 15.3 µM | HT-29 > 100 µM | M14 > 100 µM | MDA-MB-435 > 100 µM | MDA-N > 100 µM | NCI-H226 64.9 µM | NCI-H522 > 100 µM | OVCAR-5 > 100 µM | PC-3 > 100 µM | SF-295 > 100 µM | SF-539 > 100 µM | SK-MEL-2 > 100 µM | SK-OV-3 > 100 µM | TK-10 > 100 µM | UO-31 > 100 µM

C[C@H]1C=C2[C@@H]3CC(C)(C(=O)O)CC[C@]3(C)CC[C@]2(C)[C@]2(C)CC[C@H]3C(C)(C)[C@@H](OC(=O)c4cccc5c(=O)c6ccccc6[nH]c45)CC[C@]3(C)[C@@H]12 (stereo not given in full)
inactive: A498 79.1 µM | A549 57.5 µM | ACHN 67.3 µM | DU-145 67.5 µM | HCT-116 89.7 µM | HOP-92 > 100 µM | HT-29 > 100 µM | M14 61 µM | MDA-MB-435 41.8 µM | MDA-N 59.8 µM | NCI-H226 24 µM | NCI-H522 28.8 µM | OVCAR-5 > 100 µM | PC-3 38.2 µM | SF-295 > 100 µM | SF-539 > 100 µM | SK-MEL-2 > 100 µM | SK-OV-3 > 100 µM | TK-10 > 100 µM | UO-31 70 µM

COC(=O)c1c(O)ccc2c1c1cc3ccccc3cc1n2Cc1cc(OC)cc(OC)c1
inactive: A498 9.02 µM | A549 3.37 µM | ACHN 1.74 µM | DU-145 2.53 µM | HCT-116 1.13 µM | HOP-92 11.7 µM | HT-29 11 µM | M14 2.25 µM | NCI-H226 14.9 µM | OVCAR-5 9.64 µM | PC-3 2.46 µM | SF-539 1.86 µM | SK-MEL-2 1.22 µM | SK-OV-3 1.43 µM | TK-10 > 23.2 µM | UO-31 3.17 µM
active: MDA-MB-435 0.321 µM | MDA-N 0.43 µM | NCI-H522 0.194 µM | SF-295 1.11 µM

CNCCCNc1c2ccccc2nc2cccc([N+](=O)[O-])c12
active: A498 0.0029 µM | A549 0.00187 µM | ACHN 0.00251 µM | DU-145 0.00378 µM | HCT-116 0.00242 µM | HOP-92 0.00183 µM | HT-29 0.00337 µM | M14 0.00433 µM | MDA-MB-435 0.00166 µM | MDA-N 0.0016 µM | NCI-H226 0.018 µM | NCI-H522 0.000449 µM | OVCAR-5 0.00459 µM | PC-3 0.00182 µM | SF-295 0.0034 µM | SF-539 0.00634 µM | SK-MEL-2 0.00332 µM | SK-OV-3 0.0103 µM | TK-10 0.00675 µM | UO-31 0.00845 µM

CN(C)c1ccc(/C=C/C(=O)c2cc(C(C)(C)C)c(O)c(C(C)(C)C)c2)cc1
active: HCT-116 1.05 µM | HT-29 1.03 µM | MDA-MB-435 0.258 µM | MDA-N 0.249 µM | NCI-H522 0.482 µM | SF-295 0.43 µM | SF-539 0.625 µM | SK-MEL-2 1.08 µM
inactive: A498 1.91 µM | A549 2.32 µM | ACHN 1.73 µM | DU-145 2 µM | HOP-92 > 100 µM | M14 1.15 µM | NCI-H226 1.85 µM | OVCAR-5 2.99 µM | PC-3 1.22 µM | SK-OV-3 1.74 µM | TK-10 1.23 µM | UO-31 1.61 µM

Cc1cc(=O)oc2cc(OC(=O)N(CCCl)CCCl)ccc12
inactive: A498 > 100 µM | A549 > 100 µM | ACHN > 100 µM | DU-145 > 100 µM | HCT-116 > 100 µM | HOP-92 18.2 µM | HT-29 > 100 µM | M14 > 100 µM | MDA-MB-435 > 100 µM | MDA-N > 100 µM | NCI-H226 > 100 µM | NCI-H522 79.1 µM | OVCAR-5 > 100 µM | PC-3 46.8 µM | SF-295 > 100 µM | SF-539 > 100 µM | SK-MEL-2 > 100 µM | SK-OV-3 > 100 µM | TK-10 > 100 µM | UO-31 > 100 µM

CCNC(=S)N/N=C(\C)c1cccc(C)n1
inactive: A498 13.5 µM | A549 20.6 µM | ACHN 9.27 µM | DU-145 14.9 µM | HCT-116 7.18 µM | HOP-92 13.5 µM | HT-29 3.09 µM | M14 11 µM | MDA-MB-435 20.5 µM | MDA-N 28.2 µM | NCI-H226 11 µM | OVCAR-5 9.31 µM | PC-3 5.87 µM | SF-295 26.9 µM | SF-539 18.7 µM | SK-MEL-2 42.8 µM | SK-OV-3 13.1 µM | TK-10 > 100 µM | UO-31 3.71 µM
active: NCI-H522 0.897 µM

CC(O)C1(CNc2cc(Cl)nc(N)n2)CC(CCc2ccccc2)C1 (stereo not given)
inactive: A498 13.7 µM | A549 10.6 µM | ACHN 9.73 µM | DU-145 16.4 µM | HCT-116 8.28 µM | HOP-92 12.2 µM | HT-29 13 µM | M14 17.9 µM | MDA-MB-435 13.7 µM | MDA-N 12.9 µM | NCI-H226 14.7 µM | NCI-H522 8.41 µM | OVCAR-5 17.2 µM | PC-3 11.6 µM | SF-295 14.4 µM | SF-539 16.6 µM | SK-MEL-2 17.2 µM | SK-OV-3 15.1 µM | TK-10 16.1 µM | UO-31 12.1 µM

CC(Br)C(=O)Nc1ccc(C(=O)O)c(O)c1 (stereo not given)
inactive: A498 > 100 µM | A549 > 100 µM | ACHN > 100 µM | DU-145 > 100 µM | HCT-116 50.7 µM | HOP-92 65.6 µM | HT-29 62.4 µM | M14 33.4 µM | MDA-MB-435 34.4 µM | MDA-N 34.6 µM | NCI-H226 93.5 µM | NCI-H522 20 µM | OVCAR-5 > 100 µM | PC-3 34 µM | SF-295 > 100 µM | SF-539 38.6 µM | SK-MEL-2 32.4 µM | SK-OV-3 38.5 µM | TK-10 52.4 µM | UO-31 > 100 µM

O=C1/C(=C/c2ccc(O)c(O)c2)CC/C1=C\c1ccc(O)c(O)c1
inactive: A498 17 µM | A549 15.7 µM | ACHN 4.98 µM | DU-145 9.46 µM | HCT-116 3.58 µM | HOP-92 4.17 µM | HT-29 18.5 µM | M14 3.03 µM | MDA-MB-435 4.68 µM | MDA-N 4.61 µM | NCI-H226 7.46 µM | NCI-H522 2.01 µM | OVCAR-5 > 42.2 µM | PC-3 11.8 µM | SF-295 > 44.5 µM | SF-539 2.49 µM | SK-MEL-2 22.7 µM | SK-OV-3 12.1 µM | TK-10 > 25.9 µM | UO-31 2.29 µM
